Data on 36 molecules can be found in a melting point compilation (Tetko et al.; mined from patent text by program, amines drawn as free bases though some values may be those of a salt).

SMILES strings stand for the structures. Residues, ends and D or L forms follow the SMILES beside them. *: point of attachment. Bz = O=C(c1ccccc1)*

In general, melting point refers to the temperature, or range, at which the solid turns liquid. The molecule `CN1CCCC1=NC(=O)Nc1ccc([N+](=O)[O-])cc1` had a melting point of 180 to 182 °C.
With `O=C1C(Cc2ccccc2)C(C(F)(F)F)Nc2ccccc2N1Cc1ccccc1` (stereo unspecified) the figure was 150 to 151 °C; with `CCCN(CCC)C(=O)CNc1nc(-c2ccccc2)ncc1N`, 120 to 122 °C; with `N#Cc1ccc(CCCCCO)cc1`, 39 to 41 °C.
Turning to `CCOC(=O)C(C)Oc1cc(N=C(C(N)=O)N2CCCC2)c(Cl)cc1Cl` (stereo unspecified), the melting point was in the range of 160 to 163 °C.
With `O=C1N(Cc2cccc(C(F)(F)F)c2)c2ccccc2C12COc1cc3c(cc12)OCCO3` (stereo unspecified) the figure was 131 to 134 °C; with `CCCOc1ccc(/C=C/c2nc3c([nH]2)c(=O)n(CC)c(=O)n3CC)cc1`, more than 270 °C; with `O=S(=O)(Cc1ccc(O)cc1)Nc1ncc(-c2ccc(O)cc2)nc1Cc1ccccc1`, 194 to 196 °C.
With `COC(=O)c1cccc2c(=O)c3cccc(I)c3[nH]c12` the figure was 174 to 176 °C; with `c1cc(-c2cnn3cc(-c4ccc(OCCN5CCOCC5)cc4)cnc23)cs1`, 149 to 151 °C; with `O=[N+]([O-])c1cc(Cl)c(O)cc1OCCO`, 159 °C.
On to `CCOC(=O)C1CN2c3c(c(F)c(F)c(F)c3C1=O)CCN2C` (stereo unspecified), for which the melting point is 236 to 240 °C.
Consider `CCCCCC(Oc1ccc(C2=CCCCCCC2)cc1)C(=O)O` (stereo unspecified), for which the melting point lay in the range of 57 to 60 °C.
As for `CNc1c(F)c(O)c2c(=O)c(C(=O)O)cn(-c3cc(N)c(F)cc3F)c2c1C`, the figure is more than 280 °C; as for `OCC1OC(n2c(SCc3ccccc3)nc3cc(Cl)c(Cl)cc32)C(O)C1O` (stereo unspecified), 196 to 198 °C.
For the molecule `CCNC(=O)[C@H](C)NC(=O)[C@H](C)NC(=O)c1ccccc1` (Bz-Ala-Ala-NHEt), the melting point fell in the range of 237 to 239 °C.
With `O=C(NCC1CCCCC1)c1c(Cl)ccc2nc(N3CC(NCCO)C3)ccc12` the figure was 150 to 151 °C; with `Nc1ccc(C(F)(F)F)cc1C(=O)O`, 191 to 192 °C; with `Fc1cccc(CNC(=S)N2CCc3c([nH]c4ccccc34)C2c2ccc3c(c2)OCO3)c1` (stereo unspecified), 179 to 181 °C.
`Nc1ccc2c(c1)SC1=NCCCN12` had a melting point of 186 °C.
With `C[C@H](C(=O)O)[C@H](O)CCCCc1ccccc1` the figure was 75 to 77 °C; with `O=[N+]([O-])c1ccc(OCCCCCOc2ccc([N+](=O)[O-])cc2)cc1`, 101 to 102 °C; with `COc1cc2nc3ccccc3sc-2c(OC)c1=O`, 193 °C.
With `COc1cc(-c2cn(Cc3ccccc3)c(=O)c3ccccc23)cc(OC)c1OC` the figure was 166 to 168 °C; with `CC(Oc1ccc(-c2ccc(Cl)cc2)cc1)(C(N)=O)C(F)(F)F` (stereo unspecified), 141 to 142 °C.
With `Cn1nnc2c(N3CCOCC3)nc(-c3ccc(NC(=O)Nc4cccs4)cc3)nc21` the figure was 182 °C; with `Cc1c(Cl)sn(-c2ccccc2)c1=O`, 60 to 68 °C.
`O=C(O)COC(=O)c1ccccc1O` showed a melting point of 131 to 132 °C.
`c1ccc(CC[C@H]2CN(Cc3ccccc3)CCN2Cc2ccccc2)cc1` came in with a melting point of 86 to 90 °C.
With `CC1=CC(OC(=O)c2ccc([N+](=O)[O-])cc2)C(O)C(C)(C)CC1=O` (stereo unspecified) the figure was 151 to 152 °C; with `CCCn1c(COC)nc2c(N)nc3ccc(OCC4CCCN(C)C4)cc3c21` (stereo unspecified), 194 to 196 °C.
As for `CC(C)NCc1cccc(Cn2ccc(OCc3ccc(F)cc3F)c(Br)c2=O)c1`, the figure is 109 to 110 °C; as for `Fc1cc(F)cc(Oc2ccc(OCc3ccc(Cl)cc3)c(Cl)c2)c1`, 95.3 °C; as for `CCOc1cc2c(cc1OCC)C(=C(C#N)SCC(CN1CCOCC1)OC(C)=O)NCC2` (stereo unspecified), 133 °C.
As for `CC(C)Nc1ccc2c(c1)N1CCN=C1S2`, the figure is 128 °C; as for `O=Cc1ccc(OCCCC(=O)O)c(Cl)c1`, 128 to 131 °C.
